Measured values taken from ChEMBL document CHEMBL3994565 (Medchemcomm, 2016).

How the values were obtained:
[1] = Cytotoxicity against MDCK cells assessed as cell viability at 100 uM after 40 hrs by CellTiter-Glo assay relative to control; assay type: cell-based, Canis lupus familiaris; settings: dog, read-out: Activity
[2] = Antiviral activity against Influenza A virus (A/WSN/33(H1N1)) infected in MDCK cells assessed as inhibition of virus-induced cytopathic effect at 100 uM incubated for 40 hrs by CellTiter-Glo assay; assay type: functional, Influenza A virus (A/WSN/1933(H1N1))

Structure (SMILES) | viability at 40 h, 100 µM [1] [%] | inhibition at 100 µM [2] [%]
COC(=O)[C@@]1(OCCOC(=O)[C@]23CC[C@@H](C)[C@H](C)[C@@H]2C2=CC[C@@H]4[C@@]5(C)CC[C@H](O)C(C)(C)[C@@H]5CC[C@@]4(C)[C@]2(C)CC3)C[C@H](O)[C@@H](NC(C)=O)[C@H]([C@H](O)[C@H](O)CO)O1 | 0.1 | 
COC(=O)[C@@]1(OCCn2cc(CNC(=O)[C@]34CCC(C)(C)C[C@@H]3C3=CC[C@@H]5[C@@]6(C)CC[C@H](O)C(C)(C)[C@@H]6CC[C@@]5(C)[C@]3(C)C[C@H]4O)nn2)C[C@H](OC(C)=O)[C@@H](NC(C)=O)[C@H]([C@H](OC(C)=O)[C@@H](COC(C)=O)OC(C)=O)O1 | 105 | 15.3
COC(=O)[C@@]1(OCCOC(=O)[C@]23CCC(C)(C)C[C@@H]2C2=CC[C@@H]4[C@@]5(C)CC[C@H](O)C(C)(C)[C@@H]5CC[C@@]4(C)[C@]2(C)C[C@H]3O)C[C@H](OC(C)=O)[C@@H](NC(C)=O)[C@H]([C@H](OC(C)=O)[C@@H](COC(C)=O)OC(C)=O)O1 | 84.5 | 31.2
COC(=O)[C@@]1(OCCn2cc(CNC(=O)[C@]34CCC(C)(C)C[C@@H]3C3=CC[C@@H]5[C@@]6(C)CC[C@H](O)C(C)(C)[C@@H]6CC[C@@]5(C)[C@]3(C)C[C@H]4O)nn2)C[C@H](O)[C@@H](NC(C)=O)[C@H]([C@H](O)[C@H](O)CO)O1 | 107 | 2.2
C[C@H]1[C@H](C)CC[C@]2(C(=O)O)CC[C@]3(C)C(=CC[C@@H]4[C@@]5(C)CC[C@H](O)C(C)(C)[C@@H]5CC[C@]43C)[C@H]12 [URSOLIC ACID] | 0.4 | 
COC(=O)[C@@]1(OCCOC(=O)[C@]23CCC(C)(C)C[C@@H]2C2=CC[C@@H]4[C@@]5(C)CC[C@H](O)C(C)(C)[C@@H]5CC[C@@]4(C)[C@]2(C)C[C@H]3O)C[C@H](O)[C@@H](NC(C)=O)[C@H]([C@H](O)[C@H](O)CO)O1 | 99.8 | -11.8
C=C(C)[C@@H]1CC[C@]2(C(=O)NCc3cn([C@]4(C(=O)OC)C[C@H](O)[C@@H](NC(C)=O)[C@H]([C@H](O)[C@H](O)CO)O4)nn3)CC[C@]3(C)[C@H](CC[C@@H]4[C@@]5(C)CC[C@H](O)C(C)(C)[C@@H]5CC[C@]43C)[C@@H]12 | 104 | -8.1
CC1(C)CC[C@]2(C(=O)O)[C@H](O)C[C@]3(C)C(=CC[C@@H]4[C@@]5(C)CC[C@H](O)C(C)(C)[C@@H]5CC[C@]43C)[C@@H]2C1 | 40.1 | 
COC(=O)[C@@]1(n2cc(CNC(=O)[C@]34CC[C@@H](C)[C@H](C)[C@@H]3C3=CC[C@@H]5[C@@]6(C)CC[C@H](O)C(C)(C)[C@@H]6CC[C@@]5(C)[C@]3(C)CC4)nn2)C[C@H](O)[C@@H](NC(C)=O)[C@H]([C@H](O)[C@H](O)CO)O1 | 12.2 | 
COC(=O)[C@@]1(OCCn2cc(CNC(=O)[C@]34CCC(C)(C)C[C@@H]3C3=CC[C@@H]5[C@@]6(C)CC[C@H](O)C(C)(C)[C@@H]6CC[C@@]5(C)[C@]3(C)CC4)nn2)C[C@H](O)[C@@H](NC(C)=O)[C@H]([C@H](O)[C@H](O)CO)O1 | 107 | 6.7
COC(=O)[C@@]1(OCCOC(=O)[C@]23CC[C@@H](C)[C@H](C)[C@@H]2C2=CC[C@@H]4[C@@]5(C)CC[C@H](O)C(C)(C)[C@@H]5CC[C@@]4(C)[C@]2(C)CC3)C[C@H](OC(C)=O)[C@@H](NC(C)=O)[C@H]([C@H](OC(C)=O)[C@@H](COC(C)=O)OC(C)=O)O1 | 0.2 | 
COC(=O)[C@@]1(OCCn2cc(CNC(=O)[C@]34CC[C@@H](C)[C@H](C)[C@@H]3C3=CC[C@@H]5[C@@]6(C)CC[C@H](O)C(C)(C)[C@@H]6CC[C@@]5(C)[C@]3(C)CC4)nn2)C[C@H](OC(C)=O)[C@@H](NC(C)=O)[C@H]([C@H](OC(C)=O)[C@@H](COC(C)=O)OC(C)=O)O1 | 3.3 | 
COC(=O)[C@@]1(n2cc(CNC(=O)[C@]34CCC(C)(C)C[C@@H]3C3=CC[C@@H]5[C@@]6(C)CC[C@H](O)C(C)(C)[C@@H]6CC[C@@]5(C)[C@]3(C)CC4)nn2)C[C@H](O)[C@@H](NC(C)=O)[C@H]([C@H](O)[C@H](O)CO)O1 | 106 | -4.6
COC(=O)[C@@]1(OCCI)C[C@H](OC(C)=O)[C@@H](NC(C)=O)[C@H]([C@H](OC(C)=O)[C@@H](COC(C)=O)OC(C)=O)O1 | 103 | 6.3
COC(=O)[C@@]1(n2cc(CNC(=O)[C@]34CCC(C)(C)C[C@@H]3C3=CC[C@@H]5[C@@]6(C)CC[C@H](O)C(C)(C)[C@@H]6CC[C@@]5(C)[C@]3(C)C[C@H]4O)nn2)C[C@H](OC(C)=O)[C@@H](NC(C)=O)[C@H]([C@H](OC(C)=O)[C@@H](COC(C)=O)OC(C)=O)O1 | 103 | -5.2
CC1(C)CC[C@]2(C(=O)O)CC[C@]3(C)C(=CC[C@@H]4[C@@]5(C)CC[C@H](O)C(C)(C)[C@@H]5CC[C@]43C)[C@@H]2C1 [OLEANOLIC_ACID] | 60.9 | 
COC(=O)[C@@]1(n2cc(CNC(=O)[C@]34CC[C@@H](C)[C@H](C)[C@@H]3C3=CC[C@@H]5[C@@]6(C)CC[C@H](O)C(C)(C)[C@@H]6CC[C@@]5(C)[C@]3(C)CC4)nn2)C[C@H](OC(C)=O)[C@@H](NC(C)=O)[C@H]([C@H](OC(C)=O)[C@@H](COC(C)=O)OC(C)=O)O1 | 2.5 | 
C=C(C)[C@@H]1CC[C@]2(C(=O)NCc3cn(CCO[C@]4(C(=O)OC)C[C@H](O)[C@@H](NC(C)=O)[C@H]([C@H](O)[C@H](O)CO)O4)nn3)CC[C@]3(C)[C@H](CC[C@@H]4[C@@]5(C)CC[C@H](O)C(C)(C)[C@@H]5CC[C@]43C)[C@@H]12 | 104 | 12.2
COC(=O)[C@@]1(N=[N+]=[N-])C[C@H](OC(C)=O)[C@@H](NC(C)=O)[C@H]([C@H](OC(C)=O)[C@@H](COC(C)=O)OC(C)=O)O1 | 100 | 1
COC(=O)[C@@]1(OCCOC(=O)[C@]23CCC(C)(C)C[C@@H]2C2=CC[C@@H]4[C@@]5(C)CC[C@H](O)C(C)(C)[C@@H]5CC[C@@]4(C)[C@]2(C)CC3)C[C@H](O)[C@@H](NC(C)=O)[C@H]([C@H](O)[C@H](O)CO)O1 | 82.4 | 16.4
COC(=O)[C@@]1(n2cc(CNC(=O)[C@]34CCC(C)(C)C[C@@H]3C3=CC[C@@H]5[C@@]6(C)CC[C@H](O)C(C)(C)[C@@H]6CC[C@@]5(C)[C@]3(C)CC4)nn2)C[C@H](OC(C)=O)[C@@H](NC(C)=O)[C@H]([C@H](OC(C)=O)[C@@H](COC(C)=O)OC(C)=O)O1 | 104 | 1.3
C=C(C)[C@@H]1CC[C@]2(C(=O)NCc3cn([C@]4(C(=O)OC)C[C@H](OC(C)=O)[C@@H](NC(C)=O)[C@H]([C@H](OC(C)=O)[C@@H](COC(C)=O)OC(C)=O)O4)nn3)CC[C@]3(C)[C@H](CC[C@@H]4[C@@]5(C)CC[C@H](O)C(C)(C)[C@@H]5CC[C@]43C)[C@@H]12 | 100 | 16
COC(=O)[C@@]1(OCCn2cc(CNC(=O)[C@]34CC[C@@H](C)[C@H](C)[C@@H]3C3=CC[C@@H]5[C@@]6(C)CC[C@H](O)C(C)(C)[C@@H]6CC[C@@]5(C)[C@]3(C)CC4)nn2)C[C@H](O)[C@@H](NC(C)=O)[C@H]([C@H](O)[C@H](O)CO)O1 | 20.1 | 
